Assay results taken from patent US10538564B2, “Peptides having osteoblast growth-promoting activity and use thereof” (PHARMA FOODS INTERNATIONAL CO., LTD., priority 2014, dated 2020).
No end group written: not given here.

What was measured:
[1] = tested on: mouse osteoblast-like cell line MC3T3-E1 Subclone-4; experiment: Osteoblast growth-promoting activity (cell counting method); type: cell-based; conditions: synthetic peptides at 2.5, 5 or 10 μg/mL; 72 hours; relative to PBS (−) group taken as 100; FIGS. 9 to 12
Protocol: A mouse osteoblast-like cell line MC3T3-E1 Subclone-4 (ATCC No. CRL-2593) was cultured in α-MEM medium supplemented with 10% FBS at 5% CO2 and 95% air at 37° C. until confluent. The cells were collected by trypsinization. The collected cells were suspended at 1×10^4 cells/mL in fresh α-MEM medium. One mL of the cell suspension was seeded in each well of a 24-well plate, and precultured at 5% CO2 and 95% air at 37° C. On the next day, the medium was replaced with medium prepared by well mixing 50 μL of a sample or PBS (−) with 950 μL of fresh α-MEM medium supplemented with CaCl2 to a Ca concentration of 500 μg/mL. The cells were further cultured for 72 hours. The growth activity of osteoblasts was measured by the cell counting method. The activity of the sample for promoting the growth of osteoblasts was expressed in terms of the relative value, with the growth rate in the PBS (−) group taken as 100. Osteoblast growth-promoting activity was determined for the synthetic peptides in the same manner as in Example 1. The synthetic peptides were added at 2.5, 5 or 10 μg/mL per well. As a control, PBS (−) was added. The osteoblast growth-promoting activity was expressed in terms of the relative value, with the growth rate in the PBS (−) group taken as 100.

[2] = tested on: Sprague-Dawley male rats at three weeks old; experiment: Bone growth promoting effect in adolescent rats (tibial growth plate, calcein label); type: in vivo, rat; conditions: FIG. 13
Protocol: One of the synthetic peptides (No. 1) or physiological saline (control) was administered to Sprague-Dawley male rats at three weeks old by oral gavage using a gastric tube once a day for four days. The dose of the synthetic peptide was 1, 10 or 100 mg/kg·day. As a positive control, human growth hormone (hGH) (Norditropin, Standard Commodity Classification No. of Japan: 872412) was subcutaneously administered at 20 μg/kg·day once a day for four days. After the administration on day 4, calcein was subcutaneously administered, and the rats were kept for one day. The rats were euthanized by bloodletting under anesthesia, and the tibiae were harvested. The tissue specimens of the tibial growth plates were prepared, and calcein deposition areas (fluorescent regions) on the tibial growth plates were measured under a fluorescent microscope to determine the longitudinal bone growth.

[3] = tested on: mouse-derived chondrogenic cell line ATDC5; experiment: Chondrocyte growth-promoting activity (Cell Counting Kit-8); type: cell-based; conditions: 10 nmol/mL; 72 hours; relative to control taken as 100%; FIG. 14
Protocol: This study was performed using mouse-derived chondrogenic cell line ATDC5 (RIKEN BANK, RBC0565). ATDC5 cells in the logarithmic growth phase were suspended at 3×10^4 cells/mL in Eagle MEM medium supplemented with 5% FCS (fetal calf serum), and 100 μL of the cell suspension was seeded in each well of a 96-well plate and precultured at 5% CO2 and 95% air at 37° C. On the next day, the medium in each well was removed, and medium containing the synthetic peptide (No. 1 or No. 6) at 10 nmol/mL was added. The cells were cultured for 72 hours. As a control, medium without a synthetic peptide was added. The reaction solution ([…]) of Cell Counting Kit-8 (Dojindo Laboratories) was added to each well. The plate was incubated for 3 hours, and the absorbance at 450 nm was measured with a microplate reader. The activity of the synthetic peptides for promoting the growth of chondrocytes was expressed in terms of the relative value, with the absorbance (growth rate) in the control group taken as 100%.

[4] = tested on: mouse-derived cell line ATDC5; experiment: Hyaluronic acid production-promoting activity (ELISA of culture supernatant); type: cell-based; conditions: 10 nmol/mL; supernatant after 48 hours of culture; FIG. 15
Protocol: This study was performed using the mouse-derived cell line ATDC5 as used in Example 4. ATDC5 cells in the logarithmic growth phase were seeded at 2×10^4 cells/mL per well in a 24-well plate containing DMEM/F-12 (1:1) medium supplemented with 5% FCS (fetal calf serum), 10 μg/mL transferrin and 3×10^−8 M sodium selenite. The cells were precultured at 5% CO2 and 95% air at 37° C. On the next day, the medium in each well was removed, and medium containing the synthetic peptide (No. 1 or No. 6) at 10 nmol/mL was added. The cells were cultured for […]. As a control, medium without a synthetic peptide was added. After 48 hours of culture, the culture supernatants were collected, and their hyaluronic acid concentrations were measured using QnE Hyaluronic Acid ELISA Assay (Biotech Trading Partners). The concentrations of hyaluronic acid in the culture supernatants of the synthetic peptide addition group were calculated by subtracting the absorbance of the background from the absorbance of the supernatants, and fitting the resulting values to the reference curve prepared using the standard.

[5] = tested on: ovariectomized (OVX) female rats; experiment: Postmenopausal osteoporosis model of ovariectomized rats; type: in vivo, rat; conditions: for bone density compared with sham operation group / volume of the cancellous bone compared with sham operation group: six months
Protocol: Female rats (eight months old, ten rats in each group) underwent ovariectomy (OVX), and synthetic peptide No. 1 was administered to the rats by oral gavage using a gastric tube once a day from the first postoperative day for six months. The dose of the synthetic peptide was 1, 10 or 100 mg/kg·day.

[6] = tested on: mature female rats (eight months old); experiment: Bone formation-promoting effect in mature rats; type: in vivo, rat; conditions: 20 weeks
Protocol: Synthetic peptide No. 1 was administered to mature female rats (eight months old, ten rats in each group) by oral gavage using a gastric tube once a day for 20 weeks. The dose of the synthetic peptide was 1, 10 or 100 mg/kg·day.

[7] = tested on: aged female rats (13 to 14 months old); experiment: Bone formation-promoting effect in aged rats; type: in vivo, rat; conditions: oral 1, 10 or 100 mg/kg·day, 20 weeks
Protocol: Synthetic peptide No. 1 was administered to aged female rats (13 to 14 months old, ten rats in each group) by oral gavage using a gastric tube once a day for 20 weeks. The dose of the synthetic peptide was 1, 10 or 100 mg/kg·day.

[8] = oral 1, 10 or 100 mg/kg·day for six months
[9] = oral 1, 10 or 100 mg/kg·day for six months, significant vs OVX-control group
[10] = No. 1 oral 1, 10 or 100 mg/kg·day, alendronate 300 μg/kg subcutaneous, vs control group

For VNPESEEE [No. 1], the osteoblast growth-promoting activity [1] was “promoted the growth of osteoblasts in a concentration-dependent manner”, the “effect of enhancing the increase in the height of the tibial growth plates, compared with hGH” value ([2]; highest dose (100 mg/kg·day oral) vs hGH 20 μg/kg·day subcutaneous, four days) was “comparable to the effect of the subcutaneous administration of the human growth hormone” and the “increase in the height of the tibial growth plates” value ([2]; oral gavage 1, 10 or 100 mg/kg·day once a day for four days) was “enhanced in a manner consistent with the increase in the dose of the synthetic peptide”. For the same sequence, the chondrocyte growth-promoting activity [3] was “showed chondrocyte growth-promoting effect”, the “hyaluronic acid production-promoting activity (hyaluronic acid concentration in culture supernatant)” value [4] was “showed hyaluronic acid production-promoting effect” and the “bone density compared with sham operation group” value ([5]; high-dose 100 mg/kg·day oral) was “equal or higher bone density as compared with the sham operation group”. For the same sequence, the “volume of the cancellous bone compared with sham operation group” value ([5]; high-dose 100 mg/kg·day oral) was “equal or higher volume of the cancellous bone as compared with the sham operation group”, the “bone density compared with sham operation group” value ([5]; medium-dose 10 mg/kg·day oral) was “equal or higher bone density as compared with the sham operation group” and the “volume of the cancellous bone compared with sham operation group” value ([5]; medium-dose 10 mg/kg·day oral) was “equal or higher volume of the cancellous bone as compared with the sham operation group”. For the same sequence, the “OVX-induced increase in the trabecular separation” value [5, 8] was “tended to be inhibited”, the “OVX-induced reduction in the trabecular numbers” value [5, 8] was “tended to be inhibited” and the “OVX-induced reduction in the trabecular width” value [5, 8] was “tended to be inhibited”. The “bone density of the distal femoral metaphysis” value [5, 9] was “increase in the bone density of the distal femoral metaphysis in a manner consistent with the increase in the dose of the synthetic peptide”, the “cancellous bone volume in the proximal tibial metaphysis” value [5, 9] was “increased in the OVX-synthetic peptide administration group in a manner consistent with the increase in the dose” and the “levels of the increases (femur bone density, cancellous bone volume) compared with alendronate” value [6] was “comparable to those in the alendronate administration group”. For the same sequence, the “bone density in the femurs” value [6, 10] was “significantly increased”, the “cancellous bone volume in the proximal tibial metaphysis” value [6, 10] was “significantly increased” and the “bone density in the femurs” value [7] was “increased in a dose-dependent manner”. For the same sequence, the “cancellous bone volume in the proximal tibial metaphysis” value [7] was “increased in a dose-dependent manner”.
